Data: US20210130420A1, “RECOMBINANT BINDING PROTEINS TARGETING HER2 AND SERUM ALBUMIN, AND THEIR USES” (Molecular Partners AG, priority 2016, published 2021)

Columns and labels:
AKT [1] = assay: Phospho-site specific ELISA, BT474 cells; type: cell-based, human; details: 100 nM, 18 hours
Foxo3a protein [2] = assay: Cellular levels of Foxo3a protein in BT474 cells; type: cell-based, human; details: compared to an exposure to PBS only
Description: (§1) Protein #21 was expressed and purified as described in Example 1. […] Cells were then subjected to a phospho-proteome mass-spectrometry analysis as described by Britton, D., et al. (Britton, D., Zen, Y., Quaglia, A., Selzer, S., Mitra, VI., Lössner, C., Jung, S., Bohm, G., Schmid, P., Prefot, P., Hoehle, C., Koncarevic, S., Gee, J., Nicholson, R., Ward, M., Castellano, L., Stebbing, J., Zucht, H. D., Sarker, D., Heaton, N., and Pike, I., 2014. PLOS One 9 (3), e90948).
(§2) It is known to the practitioner in the art, that Akt1 phosphorylates Foxo3a, resulting in the degradation of Foxo3a and promotion of cell survival. Inhibition of Act phosphorylation leads to stabilization of Foxo3a and thus increase in Foxo3a levels. At increased levels Foxo3a can translocate to the nucleus and induce apoptosis.

HER1/EGFR = assay: Phosphorylation state ELISA, BT474 cells; type: cell-based, human; details: 100 nM, 18 hours
HER3 = assay: Phosphorylation state ELISA, BT474 cells; type: cell-based, human; details: 100 nM, 18 hours
BT474 cells = assay: Induction of apoptosis, Caspase 3/7 activation; type: cell-based, human; details: FIG. 7
Experimental: Briefly, 10000 BT474 cells were seeded per well in a 96 well plate in100 μl complete medium and incubated for 24 hours. […] Caspase Glo reagent was added according to the manufactures protocol for 1 hour. Caspase 3/7 activation was monitored by measuring luciferase activity. Alternatively induction of apoptosis was determined using the Cell Death Detection [sequence] system (Roche, Switzerland). The assay was performed according to the manufactures protocol. Cell number and incubations times were similar to the Caspase Glo readout. Data were analyzed using the GraphPad prism software, plotting concentration on the x-axis against OD405/490 nm or relative light units (RLU; measured on a Tecan M-1000 reader) on the y-axis. Data were fitted using a non-linear regression fit (log(agonist) vs. response—Variable slope (four parameters)).

AKT [3] = assay: Phospho-proteome mass spectrometry of BT474 cells; type: cell-based, human; details: 100 nM, 18 hours
Description: as §1

mTOR = assay: Phospho-proteome mass spectrometry of BT474 cells; type: cell-based, human; details: 100 nM, 18 hours
Description: as §1

RPS6KB1/S6 Kinase = assay: Phospho-proteome mass spectrometry of BT474 cells; type: cell-based, human; details: 100 nM, 18 hours
Description: as §1

RAF = assay: Phospho-proteome mass spectrometry of BT474 cells; type: cell-based, human; details: 100 nM, 18 hours
Description: as §1

Foxo3a protein [4] = assay: Cellular levels of Foxo3a protein in NCI-N87 cells; type: cell-based; details: compared to an exposure to PBS only
Description: as §1, §2

GXA3039 = assay: Gastric cancer patient derived tumor xenograft mouse model GXA3039; type: in vivo; details: GXA3039, FIG. 4D; Protein #21 60 mg/kg, antibodies 10 mg/kg, every three days for 6 times
Experimental: Further, Protein #21 was expressed and purified as described in Example 1. […] All groups were dosed every three days for 6 times. Briefly, tumor fragments were obtained from xenografts in serial passage in nude mice. After removal from donor mice, tumors were cut into fragments (4-5 mm diameter) for subcutaneous implantation. Mice were randomized into groups when tumors reached a volume of approximately 100-120 mm^3. The day of randomization and treatment initiation is designated as day 0 in each experiment. Tumor growth was monitored by two-dimensional measurement with a caliper on the day of randomization and then twice weekly. Relative volumes of individual tumors (individual RTVs) for Day x were calculated by dividing the individual tumor volume on Day x (Tx) by the individual volume of the same tumor on Day 0 (TO) multiplied by 100%. Tumor inhibition for a particular day (T/C in %) was calculated from the ratio of the median RTV values of test versus control groups multiplied by 100%.

Substance: Pertuzumab [reference compound]
- AKT S473 phosphorylation (AKT [1]): 0.73 fold change to PBS
- increase of cellular levels of Foxo3a protein (Foxo3a protein [2]): 1.21 fold
- HER1/EGFR Pan-Phospho-Tyrosine (HER1/EGFR): 0.68 fold change to PBS
- HER3 Pan-Phospho-Tyrosine (HER3): 0.78 fold change to PBS
- induction of apoptosis in BT474 cells (BT474 cells): did not induce apoptosis
- AKT S124 phosphorylation (AKT [3]): 1.04 fold change to PBS
- AKT S129 phosphorylation (AKT [3]): 1.16 fold change to PBS
- mTOR S2448/S2454 phosphorylation (mTOR): 1.09 fold change to PBS
- RPS6KB1/S6Kinase S441/T444/S447 phosphorylation (RPS6KB1/S6 Kinase): 1.02 fold change to PBS
- RPS6KB1/S6Kinase T444/S447 phosphorylation (RPS6KB1/S6 Kinase): 1.04 fold change to PBS
- RAF S642 phosphorylation (RAF): 1.2 fold change to PBS
- RAF T631/T638/T640/T641/S642 phosphorylation (RAF): 1.01 fold change to PBS
- increase of cellular levels of Foxo3a protein (Foxo3a protein [4]): 1.25 fold
- inhibition of tumor growth, second experiment (GXA3039): significantly less efficacious
